Laboratory results reported in patent US20250230226A1, “PLXDC1/PLXDC2 ACTIVATORS AND THEIR USE IN THE TREATMENT OF BLOOD VESSEL DISORDERS” (THE REGENTS OF THE UNIVERSITY OF CALIFORNIA, priority 2019, published 2025).

Test system: LL/2 lung cancer tumor endothelial cells
Assay: Lung LL2 ex vivo model of tumor angiogenesis
Type: cell-based, mouse
Conditions: for Cell death: drug treatment for two days, ratio of red area to total endothelial cell area; for 48 hrs (morphology observations): LL/2 tumor endothelial cells
How it was run: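 LL2 mouse tumor fragments (~0.075 mm³) embedded in Matrigel and cultured in endothelial growth medium at 37 °C until endothelial outgrowth (~4 days) before treatment. Cell death assessed e.g. 48 h after drug by fluorescein diacetate (live)/propidium iodide (dead) staining and red/green fluorescence imaging.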

[1] = Mus musculus, Endothelial cell, 48 h, read-out: Cell death

Row | Structure (SMILES) | 48 hrs (morphology observations) (40 μm) | Cell death (40 μm) [%] | also measured
1 | CC(C)CCCC(C)CCOc1ccc(S(=O)(=O)c2cnc3ccc([S+](C)[O-])cc3c2N2CCC(N3CCC(N4CCCCC4)CC3)CC2)cc1 (stereo not drawn) [Compound 289] |  |  | Cell death (20 μm): 20%
2 | CCCCCCCCCCOc1ccc(S(=O)(=O)c2cnc3ccc([S+](C)[O-])cc3c2N2CCC(N3CCC(N4CCCCC4)CC3)CC2)cc1F (stereo not drawn) [Compound 290] |  |  | 48 hrs (morphology observations) (10 μm): *** (more than 50% but less than 100% of endothelial cells vesicularize in cell shape); cytotoxicity at 10 µM [1]: 50%
3 | CCCCCCCCCCOc1ccc(S(=O)(=O)c2cnc3ccc([S+](C)[O-])cc3c2N2CCC(N3CCN(CCO)CC3)CC2)cc1F (stereo not drawn) [Compound 291] |  |  | Cell death, read at 24 hrs (20 μm): 10%; Endothelial cell morphology score at 24 hrs (20 μm): * (50% or less of cells vesicularize in cell shape)
4 | CCCCCCCCCCOc1ccc(S(=O)(=O)c2cnc3ccc([S+](C)[O-])cc3c2N2CCC(N3CCC(N4CCN(CCO)CC4)CC3)CC2)cc1 (stereo not drawn) [Compound 292] |  |  | Cell death, read at 24 hrs (20 μm): 10%; Endothelial cell morphology score at 24 hrs (20 μm): * (50% or less of cells vesicularize in cell shape)
5 | CCN(c1c(S(=O)(=O)c2ccc(OC)cc2)cnc2cc(OC)c(OC)cc12)C(C)C [Compound 294] | * (50% or less of cells vesicularize in cell shape) | 50 | 
6 | CCN(CC)CCN(CC)c1c(S(=O)(=O)c2ccc(OC)cc2)cnc2cc(OC)c(OC)cc12 [Compound 296] | 0 | 20 | 
7 | CCN(CC)CCC(C)Nc1c(S(=O)(=O)c2ccc(OC)cc2)cnc2cc(OC)c(OC)cc12 (stereo not drawn) [Compound 300] | 0 | 20 | 
8 | CCN(CC)CCCN1CCN(c2c(S(=O)(=O)c3ccc(OC)cc3)cnc3cc(OC)c(OC)cc23)CC1 [Compound 302] | 0 | 70 | 
9 | COc1ccc(S(=O)(=O)c2cnc3cc(OC)c(OC)cc3c2N2C[C@@H]3C[C@H]2CN3C)cc1 [Compound 306] | 0 |  | cytotoxicity at 40 µM [1]: 40%
10 | COc1ccc(S(=O)(=O)c2cnc3cc(OC)c(OC)cc3c2N2CCC(O)(c3ccccc3)CC2)cc1 [Compound 308] | 0 | 20 | 
11 | CNC(=O)c1ccc(C2CCN(c3c(S(=O)(=O)c4ccc(OC)cc4)cnc4cc(OC)c(OC)cc34)CC2)cc1 [Compound 310] | 0 | 10 | 
12 | COc1ccc(C2CCN(c3c(S(=O)(=O)c4ccc(OC)cc4)cnc4cc(OC)c(OC)cc34)CC2)cc1 [Compound 311] | 0 | 30 | 
13 | COc1ccc(S(=O)(=O)c2cnc3cc(OC)c(OC)cc3c2N2CCC(c3ccc(CN4CCCC4)cc3)CC2)cc1 [Compound 312] | **** (100% of endothelial cells vesicularize in cell shape and look flattened in morphology (indicating disintegration of the cell body)) | 100 | 
14 | CCOC(=O)c1ccc(N2CCN(c3c(S(=O)(=O)c4ccc(OC)cc4)cnc4cc(OC)c(OC)cc34)CC2)cc1 [Compound 317] | 0 | 30 | 
15 | COc1ccc(N2CCN(c3c(S(=O)(=O)c4ccc(OC)cc4)cnc4cc(OC)c(OC)cc34)CC2=O)cc1 [Compound 318] | 0 | 30 | 
16 | COc1ccc(S(=O)(=O)c2cnc3cc(OC)c(OC)cc3c2N2CCC(N3CCCCC3)CC2)cc1 [Compound 320] | 0 | 30 | 
17 | COc1ccc(S(=O)(=O)c2cnc3cc(OC)c(OC)cc3c2N2CCC(N3CCCC3=O)CC2)cc1 [Compound 321] | 0 | 40 | 
18 | COc1ccc(S(=O)(=O)c2cnc3cc(OC)c(OC)cc3c2N2CCC(N3CCCC3CO)CC2)cc1 (stereo not drawn) [Compound 322] | 0 | 30 | 
19 | COc1ccc(S(=O)(=O)c2cnc3cc(OC)c(OC)cc3c2N2CCCN(CCO)CC2)cc1 [Compound 323] | 0 | 30 | 
20 | COc1ccc(S(=O)(=O)c2cnc3cc(OC)c(OC)cc3c2N2CCC3C(COCCN3CC(C)C)C2)cc1 (stereo not drawn) [Compound 324] | 0 | 60 | 
21 | COc1ccc(S(=O)(=O)c2cnc3cc(OC)c(OC)cc3c2N2CCCN(CC3(O)CCCC3)CC2)cc1 [Compound 325] | * (50% or less of cells vesicularize in cell shape) | 30 | 
22 | COc1ccc(S(=O)(=O)c2cnc3cc(OC)c(OC)cc3c2N2CCCN(C3COC3)CC2)cc1 [Compound 326] | 0 | 30 | 
23 | COc1ccc(S(=O)(=O)c2cnc3cc(OC)c(OC)cc3c2N2CCCN(c3nc4ccc(Cl)cc4s3)CC2)cc1 [Compound 327] | 0 |  | cytotoxicity at 40 µM [1]: 20%

Row | Structure (SMILES) | 48 hrs (morphology observations) (40 μm) | Cell death (40 μm) [%] | also measured
24 | COc1ccc(S(=O)(=O)c2cnc3cc(OC)c(OC)cc3c2N2CCC(=O)N(C)CC2)cc1 [Compound 328] | 0 | 30 | 
25 | COc1ccc(S(=O)(=O)c2cnc3cc(OC)c(OC)cc3c2N2CCCN(C3CCSCC3)CC2)cc1 [Compound 329] | *** (more than 50% but less than 100% of endothelial cells vesicularize in cell shape) | 40 | 
26 | COc1ccc(S(=O)(=O)c2cnc3cc(OC)c(OC)cc3c2N2CCCN(C3CCS(=O)(=O)CC3)CC2)cc1 [Compound 330] | *** (more than 50% but less than 100% of endothelial cells vesicularize in cell shape) | 50 | 
27 | COc1ccc(S(=O)(=O)c2cnc3ccc(C(=O)N(C)C)cc3c2N2CCC(N3CCCCC3)CC2)cc1 [Compound 331] | 0 | 10 | 
28 | COc1ccc(S(=O)(=O)c2cnc3ccc(C(=O)N(C)C)cc3c2N2CCC(N3CCCC3=O)CC2)cc1 [Compound 332] | 0 | 0 | 
29 | COc1ccc(S(=O)(=O)c2cnc3ccc(C(=O)N(C)C)cc3c2N2CCCN(CC(=O)N(C)C)CC2)cc1 [Compound 333] | 0 | 0 | 
30 | CNC(=O)c1ccc2ncc(S(=O)(=O)c3ccc(OC)cc3)c(N3CCC(N4CCCC4CO)CC3)c2c1 (stereo not drawn) [Compound 336] | 0 | 0 | 
31 | CCCCCCCCCCCCCCOc1ccc(S(=O)(=O)c2cnc3ccc([S+](C)[O-])cc3c2N2CCC(N3CCN(CCO)CC3)CC2)cc1 (stereo not drawn) [Compound 339] |  |  | cytotoxicity at 20 µM [1]: 50%
32 | CCCCCCCCCCCCOc1ccc(S(=O)(=O)c2cnc3ccc([S+](C)[O-])cc3c2N2CCC(N3CCC(N4CCN(CCO)CC4)CC3)CC2)cc1 (stereo not drawn) [Compound 340] |  |  | 48 hrs (morphology observations) (20 μm): *** (more than 50% but less than 100% of endothelial cells vesicularize in cell shape); Cell death (20 μm): 60%
33 | CCCCCCCCCCCCOc1ccc(S(=O)(=O)c2cnc3ccc([S+](C)[O-])cc3c2N2CCC(N3CCC(N4CCN(C)CC4)CC3)CC2)cc1 (stereo not drawn) [Compound 341] |  |  | 48 hrs (morphology observations) (20 μm): *** (more than 50% but less than 100% of endothelial cells vesicularize in cell shape); Cell death (20 μm): 80%
34 | CCCCCCCCCCCCOc1ccc(S(=O)(=O)c2cnc3ccc([S+](C)[O-])cc3c2N2CCC(N3CCN(CCO)CC3)CC2)cc1 (stereo not drawn) [Compound 344] |  |  | 48 hrs (morphology observations) (20 μm): * (50% or less of cells vesicularize in cell shape); cytotoxicity at 20 µM [1]: 10%
35 | CCCCCCCCCCCCCCOc1ccc(S(=O)(=O)c2cnc3ccc([S+](C)[O-])cc3c2N2CCC(N3CCC(N4CCN(CCO)CC4)CC3)CC2)cc1 (stereo not drawn) [Compound 345] |  |  | 48 hrs (morphology observations) (20 μm): *** (more than 50% but less than 100% of endothelial cells vesicularize in cell shape); Cell death (20 μm): 50%
36 | CCCCOc1ccc(S(=O)(=O)c2cnc3ccc(SC)cc3c2N2CCC(N3CCCC3CO)CC2)cc1 (stereo not drawn) [Compound 350] | 0 |  | cytotoxicity at 40 µM [1]: 20%
37 | CCCCOc1ccc(S(=O)(=O)c2cnc3ccc(SC)cc3c2N2CCCN(CCO)CC2)cc1 [Compound 351] | *** (more than 50% but less than 100% of endothelial cells vesicularize in cell shape) |  | cytotoxicity at 40 µM [1]: 100%
38 | CCCCOc1ccc(S(=O)(=O)c2cnc3ccc(SC)cc3c2N2CCC3C(COCCN3CC(C)C)C2)cc1 (stereo not drawn) [Compound 352] | *** (more than 50% but less than 100% of endothelial cells vesicularize in cell shape) |  | cytotoxicity at 40 µM [1]: 100%
39 | CCCCOc1ccc(S(=O)(=O)c2cnc3ccc(SC)cc3c2N2CCCN(S(=O)(=O)NCC(F)(F)F)CC2)cc1 [Compound 353] | 0 |  | cytotoxicity at 40 µM [1]: 0%
40 | CCCCOc1ccc(S(=O)(=O)c2cnc3ccc(SC)cc3c2N2CCCN(CC3(O)CCCC3)CC2)cc1 [Compound 354] | 0 |  | cytotoxicity at 40 µM [1]: 0%
41 | CCCCOc1ccc(S(=O)(=O)c2cnc3ccc(SC)cc3c2N2CCCN(C3COC3)CC2)cc1 [Compound 355] | 0 |  | cytotoxicity at 40 µM [1]: 0%
42 | CCCCOc1ccc(S(=O)(=O)c2cnc3ccc(SC)cc3c2N2CCCN(c3nc4ccc(Cl)cc4s3)CC2)cc1 [Compound 356] | 0 |  | cytotoxicity at 40 µM [1]: 0%
43 | CCCCOc1ccc(S(=O)(=O)c2cnc3ccc(SC)cc3c2N2CCC(=O)N(C)CC2)cc1 [Compound 357] | 0 |  | cytotoxicity at 40 µM [1]: 0%
44 | CCCCOc1ccc(S(=O)(=O)c2cnc3ccc(SC)cc3c2N2CCCN(C3CCSCC3)CC2)cc1 [Compound 358] | 0 |  | cytotoxicity at 40 µM [1]: 0%
45 | CCCCOc1ccc(S(=O)(=O)c2cnc3ccc(SC)cc3c2N2CCCN(C3CCS(=O)(=O)CC3)CC2)cc1 [Compound 359] | 0 |  | cytotoxicity at 40 µM [1]: 20%
46 | CNC(=O)c1ccc2ncc(S(=O)(=O)c3ccc(OC)cc3)c(NC)c2c1 [Compound 360] | 0 |  | cytotoxicity at 40 µM [1]: 20%
